Source: patent US20220411419A1, “SMALL MOLECULE MODULATORS OF MHC-I” (RetroVirox, Inc., priority 2018, published 2022)

Columns and labels:
[1] = system: downmodulation of MHC-I molecules expressed on the surface of HIV infected SupT1 cells; assay: cells; settings: for EC50: Human immunodeficiency virus 1, SUP-T1, read-out: EC50 for inhibition of MHC-I downmodulation utilizing the R1 parameter; for activity at 100 µM: Human immunodeficiency virus 1, SUP-T1, read-out: R1 @ 100 μM (R1 value for MHC-I downmodulation as % of the vehicle control)
[2] = in vitro; settings: human, uninfected SupT1 cells

Q: Which results are given for CC1(C)Cc2cccc(OCC(=O)Nc3nc(C(=O)NCc4ccco4)cs3)c2O1 [Compound 154, 2-(2-((2,2-Dimethyl-2,3-dihydrobenzofuran-7-yl)oxy)acetamido)-N-(furan-2-ylmethyl)thiazole-4-carboxamide]?
A: EC50 [1]: > 25 µM; activity at 100 µM [1]: 44%; CC50 [2]: > 100 µM; CC50 at 48 h [2]: > 100 µM

Q: What does the source list for CC1(C)Cc2cccc(OCC(=O)Nc3nc(C(F)(F)F)cs3)c2O1 [Compound 21, 2-((2,2-dimethyl-2,3-dihydrobenzofuran-7-yl)oxy)-N-(4-(trifluoromethyl)thiazol-2-yl)acetamide]?
A: EC50 [1]: 0.56 µM; CC50 at 48 h [2]: > 100 µM

Q: With COc1ccccc1CCC(=O)Nc1nc2c(s1)CCCC2 [Compound 194, 3-(2-Methoxyphenyl)-N-(4,5,6,7-tetrahydrobenzo[d]thiazol-2-yl) propanamide] as the compound, how does the EC50 [1] read?
A: Its EC50 is 1.7 µM.

Q: And the CC50 at 48 h [2]?
A: The CC50 at 48 h was 125 µM.

Q: Which EC50 [1] does the source give for COc1ccc(NC(=O)COc2cccc3c2OC(C)(C)C3)nn1 [Compound 26, 2-((2,2-Dimethyl-2,3-dihydrobenzofuran-7-yl)oxy)-N-(6-methoxypyridazin-3-yl)acetamide] here?
A: The EC50 was greater than 25 µM.

Q: And the activity at 100 µM [1]?
A: The activity at 100 µM was 53%.

Q: And the CC50 [2]?
A: The CC50 was greater than 100 µM.

Q: And the CC50 at 48 h [2]?
A: Its CC50 at 48 h is greater than 100 µM.

Q: Which EC50 [1] does the source give for COc1ccccc1CCC(=O)N(C)c1nc2c(s1)CCCC2 [Compound 110, 3-(2-Methoxyphenyl)-N-methyl-N-(4,5,6,7-tetrahydrobenzo[d]thiazol-2-yl) propanamide] here?
A: Its EC50 is 4.1 µM.

Q: What about the CC50 at 48 h [2] of the same compound?
A: Its CC50 at 48 h is greater than 125 µM.

Q: For O=C(COc1cccc2[nH]ccc12)Nc1nc2c(s1)CCCC2 [Compound 132, 2-((1H-Indol-4-yl)oxy)-N-(4,5,6,7-tetrahydrobenzo[d]thiazol-2-yl)acetamide], which EC50 [1] is on record?
A: The EC50 was 0.081 µM.

Q: What about the CC50 at 48 h [2] of the same compound?
A: Its CC50 at 48 h is greater than 125 µM.

Q: Which EC50 [1] does the source give for O=C(COc1cccc2c1CCN2)Nc1nc2c(s1)CCCC2 [Compound 135, 2-(Indolin-4-yloxy)-N-(4,5,6,7-tetrahydrobenzo[d]thiazol-2-yl)acetamide] here?
A: Its EC50 is 0.088 µM.

Q: And the CC50 at 48 h [2]?
A: Its CC50 at 48 h is greater than 125 µM.

Q: Which EC50 [1] does the source give for CN(C(=O)COc1cccc2c1OC(C)(C)C2)c1ccc(Br)cn1 [Compound 78, N-(5-Bromopyridin-2-yl)-2-((2,2-dimethyl-2,3-dihydrobenzofuran-7-yl)oxy)-N-methylacetamide] here?
A: Its EC50 is 17 µM.

Q: What about the CC50 at 48 h [2] of the same compound?
A: The CC50 at 48 h was greater than 125 µM.

Q: For CC1(C)Cc2cccc(OCC(=O)N(Cc3ncccn3)c3nc4c(s3)CCCC4)c2O1 [Compound 44, 2-((2,2-Dimethyl-2,3-dihydrobenzofuran-7-yl)oxy)-N-(pyrimidin-2-ylmethyl)-N-(4,5,6,7-tetrahydrobenzo[d]thiazol-2-yl)acetamide], which EC50 [1] is on record?
A: Its EC50 is 0.033 µM.

Q: What about the CC50 at 48 h [2] of the same compound?
A: The CC50 at 48 h was greater than 125 µM.

Q: For CC1(C)Cc2cccc(OCC(=O)Nc3cccc4cccnc34)c2O1 [Compound 178, 2-((2,2-Dimethyl-2,3-dihydrobenzofuran-7-yl)oxy)-N-(quinolin-8-yl) acetamide], which EC50 [1] is on record?
A: The EC50 was greater than 25 µM.

Q: And the activity at 100 µM [1]?
A: The activity at 100 µM was 20%.

Q: What about the CC50 [2] of the same compound?
A: The CC50 was greater than 25 µM.

Q: What about the CC50 at 48 h [2] of the same compound?
A: The CC50 at 48 h was greater than 25 µM.

Q: For CN(C(=O)COc1cccc2c1OC(C)(C)C2)c1nc2ccccc2s1 [Compound 144, N-(benzo[d]thiazol-2-yl)-2-((2,2-dimethyl-2,3-dihydrobenzofuran-7-yl)oxy)-N-methylacetamide], which EC50 [1] is on record?
A: Its EC50 is 29 µM.

Q: What about the CC50 at 48 h [2] of the same compound?
A: The CC50 at 48 h was greater than 90 µM.

Q: With CN(C(=O)COc1cccc2c1OC(C)(C)C2)c1nc2c(s1)CCC2 [Compound 162, N-(5,6-Dihydro-4H-cyclopenta[d]thiazol-2-yl)-2-((2,2-dimethyl-2,3-dihydrobenzofuran-7-yl)oxy)-N-methylacetamide] as the compound, how does the EC50 [1] read?
A: Its EC50 is 0.027 µM.

Q: And the CC50 at 48 h [2]?
A: The CC50 at 48 h was 124 µM.

Q: Which results are given for Cc1csc(N(CCc2ccccc2)C(=O)COc2cccc3c2OC(C)(C)C3)n1 [Compound 50, 2-((2,2-Dimethyl-2,3-dihydrobenzofuran-7-yl)oxy)-N-(4-methylthiazol-2-yl)-N-phenethylacetamide]?
A: EC50 [1]: 14 µM; CC50 at 48 h [2]: > 125 µM

Q: With CC1(C)Cc2cccc(OCC(=O)Nc3cccc4nccnc34)c2O1 [Compound 13, 2-((2,2-Dimethyl-2,3-dihydrobenzofuran-7-yl)oxy)-N-(quinoxalin-5-yl) acetamide] as the compound, how does the EC50 [1] read?
A: Its EC50 is greater than 25 µM.

Q: And the activity at 100 µM [1]?
A: Its activity at 100 µM is 63%.

Q: What about the CC50 [2] of the same compound?
A: Its CC50 is greater than 100 µM.

Q: And the CC50 at 48 h [2]?
A: The CC50 at 48 h was greater than 100 µM.

Q: For CC1(C)Cc2cccc(OCC(=O)N(Cc3ccccn3)c3nc4c(s3)CCCC4)c2O1 [Compound 38, 2-((2,2-Dimethyl-2,3-dihydrobenzofuran-7-yl)oxy)-N-(pyridin-2-ylmethyl)-N-(4,5,6,7-tetrahydrobenzo[d]thiazol-2-yl)acetamide], which EC50 [1] is on record?
A: Its EC50 is 0.006 µM.

Q: What about the CC50 at 48 h [2] of the same compound?
A: Its CC50 at 48 h is 0.25 µM.

Q: What does the source list for Cc1c(Cl)cccc1OCC(=O)N(C)c1nc2c(s1)CCCC2 [Compound 129, 2-(3-Chloro-2-methylphenoxy)-N-methyl-N-(4,5,6,7-tetrahydrobenzo[d]thiazol-2-yl)acetamide]?
A: EC50 [1]: > 25 µM; CC50 at 48 h [2]: > 125 µM

Q: With CCc1ccc(NC(=O)COc2cccc3c2OC(C)(C)C3)nc1 [Compound 68, 2-((2,2-dimethyl-2,3-dihydrobenzofuran-7-yl)oxy)-N-(5-ethylpyridin-2-yl)acetamide] as the compound, how does the EC50 [1] read?
A: The EC50 was 0.54 µM.

Q: What about the CC50 at 48 h [2] of the same compound?
A: The CC50 at 48 h was greater than 125 µM.

Q: For CC1(C)Cc2cccc(OCC(=O)Nc3nc4c(Br)cccc4s3)c2O1 [Compound 1, N-(4-bromobenzo[d]thiazol-2-yl)-2-((2,2-dimethyl-2,3-dihydrobenzofuran-7-yl)oxy)acetamide], which EC50 [1] is on record?
A: The EC50 was 0.12 µM.

Q: And the CC50 at 48 h [2]?
A: The CC50 at 48 h was greater than 90 µM.

Q: For Cc1ccc(N(C(=O)COc2cccc3c2OC(C)(C)C3)c2nc(C)cs2)cc1 [Compound 64, 2-((2,2-Dimethyl-2,3-dihydrobenzofuran-7-yl)oxy)-N-(4-methylthiazol-2-yl)-N-(p-tolyl)acetamide], which EC50 [1] is on record?
A: The EC50 was 0.57 µM.

Q: What about the CC50 at 48 h [2] of the same compound?
A: The CC50 at 48 h was greater than 100 µM.

Q: With Cc1ccc(N(C(=O)COc2cccc3c2OC(C)(C)C3)c2nc(C)cs2)nn1 [Compound 93, 2-((2,2-Dimethyl-2,3-dihydrobenzofuran-7-yl)oxy)-N-(6-methylpyridazin-3-yl)-N-(4-methylthiazol-2-yl)acetamide] as the compound, how does the EC50 [1] read?
A: Its EC50 is greater than 25 µM.

Q: And the activity at 100 µM [1]?
A: The activity at 100 µM was 65%.

Q: And the CC50 [2]?
A: Its CC50 is greater than 100 µM.

Q: What about the CC50 at 48 h [2] of the same compound?
A: The CC50 at 48 h was greater than 100 µM.

Q: With C=Cc1ccc(N(C)C(=O)COc2cccc3c2OC(C)(C)C3)nc1 [Compound 79, 2-((2,2-Dimethyl-2,3-dihydrobenzofuran-7-yl)oxy)-N-methyl-N-(5-vinylpyridin-2-yl)acetamide] as the compound, how does the EC50 [1] read?
A: Its EC50 is 5 µM.

Q: What about the CC50 at 48 h [2] of the same compound?
A: Its CC50 at 48 h is greater than 125 µM.

Q: What does the source list for CC1(C)Cc2cccc(OCC(=O)Nc3nc4c(s3)CCCCC4)c2O1 [Compound 3, 2-((2,2-Dimethyl-2,3-dihydrobenzofuran-7-yl)oxy)-N-(5,6,7,8-tetrahydro-4H-cyclohepta[d]thiazol-2-yl)acetamide]?
A: EC50 [1]: 0.2 µM; CC50 at 48 h [2]: > 100 µM

Q: Which EC50 [1] does the source give for CC1(C)Cc2cccc(OCC(=O)Nc3nc4ccccc4s3)c2O1 [Compound 143, N-(benzo[d]thiazol-2-yl)-2-((2,2-dimethyl-2,3-dihydrobenzofuran-7-yl)oxy)acetamide] here?
A: The EC50 was 0.41 µM.

Q: And the CC50 at 48 h [2]?
A: The CC50 at 48 h was greater than 100 µM.

Q: Which EC50 [1] does the source give for CC1(C)Cc2cccc(OCC(=O)N(Cc3ccccn3)c3nc4c(F)cccc4s3)c2O1 [Compound 45, 2-((2,2-Dimethyl-2,3-dihydrobenzofuran-7-yl)oxy)-N-(4-fluorobenzo[d]thiazol-2-yl)-N-(pyridin-2-ylmethyl)acetamide] here?
A: The EC50 was 0.51 µM.

Q: And the CC50 at 48 h [2]?
A: Its CC50 at 48 h is greater than 100 µM.

Q: With Cc1csc(NC(=O)COc2ccccc2OCc2ccccc2)n1 [Compound 141, 2-(2-(Benzyloxy)phenoxy)-N-(4-methylthiazol-2-yl)acetamide] as the compound, how does the EC50 [1] read?
A: The EC50 was 1.84 µM.

Q: And the CC50 at 48 h [2]?
A: Its CC50 at 48 h is greater than 100 µM.
